Patent US6365602B1, “N-substituted naphthalene carboxamides as neurokinin-receptor antagonists” (Astra Zeneca AB, priority 1998, dated 2002)
Where a name gives a salt, the structure may show the parent alone.

Key:
NK1 receptor = biological target: T1, NK1 receptor (Oryctolagus cuniculus, UniProt G1SEI7); test: Rabbit Pulmonary Artery: NK1 in vitro functional assay (Test D); type: cell-based; settings: relaxation to agonist ASMSP, negative log apparent dissociation constant, read-out: NK1pKb (converted)
T1 construct: Paired tissue segments of pulmonary artery excised from male New Zealand white rabbits; from tissue; host or cells: rabbit pulmonary artery segments
T1 sequence (G1SEI7 1-407): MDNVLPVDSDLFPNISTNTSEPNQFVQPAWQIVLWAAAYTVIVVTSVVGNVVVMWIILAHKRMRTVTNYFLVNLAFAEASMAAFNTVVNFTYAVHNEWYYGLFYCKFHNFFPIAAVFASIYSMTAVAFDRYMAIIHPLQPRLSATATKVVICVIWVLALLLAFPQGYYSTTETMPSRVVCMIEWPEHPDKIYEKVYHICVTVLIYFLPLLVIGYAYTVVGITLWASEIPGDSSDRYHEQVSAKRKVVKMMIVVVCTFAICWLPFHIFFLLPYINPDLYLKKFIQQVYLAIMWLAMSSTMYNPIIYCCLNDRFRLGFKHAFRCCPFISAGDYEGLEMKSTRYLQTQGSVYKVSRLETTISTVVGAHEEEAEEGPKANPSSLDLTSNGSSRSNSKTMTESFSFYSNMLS
Description: Rabbit Pulmonary Artery: NK1 in vitro functional assay (Test D)
The ability of a Compound of the invention to antagonize the action of the agonist Ac-[Arg^6, Sar^9, Met(O2)^11] […] Am. J. Physiol. 268: L152-L159, 1995.
Paired tissue segments of pulmonary artery excised from male New Zealand white rabbits are suspended between stainless steel stirrups for analyses of isometric relaxation under standard conditions in physiological salt solution (PSS) containing indomethacin (5 microM; to block cyclooxygenase) and propranolol (1 microM; to block β adrenergic receptors).
Initial tension placed on each tissue is 2 grams, which is maintained throughout the 1.0 hour equilibration period. Tissues are washed with PSS at 15 minute intervals. At the 30 and 45 minute wash the following treatments are added: Thiorphan (1 microM; to block E.C.3.4.24.11), ((3R)-3-[(1S)-1-(3,4-Dichlorophenyl)-3-(4-[(R or S)-2-methylsulfinyl-phenyl]-piperidino)propyl]-2-ethyl-2,3-dihydroisoindol-1-one) (0.03 microM; to block NK^2 receptors as described in: “Aharony D., et al. Pharmacological Characterization of ZD7944: A Novel, Potent and orally-Active Non-Peptide Neurokinin-A (NK-2) Receptor Antagonist Eur. Respir. J. 12 (Suppl. 12):20S, 1998”), and the given concentration of the Compound being tested. After equilibration, phenylephrine (3 microM) is added to produce steady-state contraction of the tissue and a dose relaxation curve to ASMSP is constructed. […]
For antagonists behaving in a noncompetitive manner, the percent inhibition of relaxation is determined at a given concentration of the antagonist. Percent inhibition is determined when a tested Compound produces a statistically significant reduction of the magnitude of maximum relaxation and is calculated as a percentage of the papaverine reference response For antagonists behaving competitively, potencies are determined by calculating the negative log value of the apparent dissociation constant (pKB) for each concentration tested. Statistical significance is determined when the P value is <0.05 using the Student's t-test for paired comparisons.

NK2 receptor = biological target: T2, NK2 receptor (Oryctolagus cuniculus, UniProt P79218); test: NK2 in vitro functional assay (Test E), rabbit pulmonary artery; type: cell-based; settings: contraction to agonist BANK, negative log apparent dissociation constant, read-out: NK2pKb (converted)
T2 construct: Left and right pulmonary arteries are excised from male New Zealand white rabbits; from tissue; host or cells: rabbit pulmonary artery ring segments, endothelium removed
T2 sequence (P79218 1-384): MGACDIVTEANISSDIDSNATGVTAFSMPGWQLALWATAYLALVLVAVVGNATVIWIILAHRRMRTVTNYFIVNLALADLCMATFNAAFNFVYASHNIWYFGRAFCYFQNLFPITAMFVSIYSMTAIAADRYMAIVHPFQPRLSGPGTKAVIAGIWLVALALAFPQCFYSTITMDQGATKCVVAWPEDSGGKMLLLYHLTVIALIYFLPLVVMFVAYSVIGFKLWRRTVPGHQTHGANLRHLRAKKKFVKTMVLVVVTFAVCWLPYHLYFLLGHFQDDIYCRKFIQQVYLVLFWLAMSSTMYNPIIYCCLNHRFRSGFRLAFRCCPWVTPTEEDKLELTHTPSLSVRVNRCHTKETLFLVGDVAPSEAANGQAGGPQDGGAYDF
Description: NK2 in vitro functional assay (Test E)
The ability of a Compound of the invention to antagonize the action of the agonist [β-ala^8] […] Am. J. Physiol. […] Left and right pulmonary arteries are excised from male New Zealand white rabbits. The pulmonary arteries are cut into ring segments and the intimal surface rubbed gently to remove the endothelium. Paired tissue segments of pulmonary artery are suspended between stainless steel stirrups for analyses of isometric tension development under standard conditions in physiological salt solution (PSS) containing indomethacin, (5 microM; to inhibit cyclooxygenase).
Initial tension placed on each tissue is 2 grams, which is maintained throughout the 45 minute equilibration period. Tissues are washed with PSS at 15 minute intervals. After the 45 minute equilibration period, 3×10^−2M KCl is applied for 60 minutes to test tissue viability. The tissues are then washed extensively for 30 minutes. The concentration of the Compound being tested is then added for 30 minutes before constructing a cumulative concentration-response curve with BANK. The curve is considered complete when each tissue fails to contract further for 2 consecutively increasing BANK concentrations. BaCl2 (3×10^−2M ) is then added to produce a maximum reference contraction.
Percent inhibition is determined when a tested Compound produces a statistically significant reduction in the magnitude of maximum contraction and is calculated as a percentage of the BaCl2 reference response. For antagonists behaving competitively, potencies are determined by calculating the negative log value of the apparent dissociation constant (pKB) for each concentration tested. Statistical significance is determined when the P value is <0.05 using the Student's t-test for paired comparisons.
(§1) NK1 and NK2 in vivo functional assay (Test F)

NK1 receptors = biological target: T3, NK1 receptors (Cavia porcellus, UniProt P30547); test: NK1 in vivo functional assay (Test F), ASMSP-induced bronchoconstriction; settings: anesthetized guinea pig, agonist ASMSP, Dose Ratio of ED50 in presence/absence of antagonist
T3 construct: from tissue; host or cells: whole anesthetized guinea pig (airways, in vivo)
T3 sequence (P30547 whole entry): as the sequence (G1SEI7 1-407) above, with S176G, E186S, G329A, L342F, E368D, A369P, N376T, M395V, F399S counted along it
Procedure: as §1
(§2) Exp. Ther., 1993, Vol 267(3), pp 1168-1175. The assay is carried out as follows.
(§3) Compounds are tested in anesthetized guinea pigs pretreated with i.v. indomethacin (10 mg/kg, 20 min.), propranolol (0.5 mg/kg, 15 min.), and thiorphan (10 mg/kg, 10 min).
(§4) […] The agonists used in these studies are ASMSP (Ac-[Arg^6, Sar^9, Met(O2)^11]-SP(6-11)) and BANK (β-ala-8 NKA4-10).
(§5) Administered i.v., ASMSP is selective for NK1 receptors, and BANK is selective for NK2 receptors. Maximum response is defined as zero conductance (GL, 1/Rp). ED50 values are calculated (the dose of agonist resulting in a reduction of GL to 50% of baseline), and converted to the negative logarithm (−logED50). The ED50 values, obtained in the presence (P) and absence (A) of antagonist, are used to calculate a Dose Ratio (P/A), an expression of potency. Data are expressed as mean±SEM and statistical differences were determined using ANOVA/Tukey-Kramer and Student's t-test, with p<0.05 considered statistically significant.

NK2 receptors = biological target: T4, NK2 receptors (Cavia porcellus, UniProt Q64077); test: NK2 in vivo functional assay (Test F), BANK-induced bronchoconstriction; settings: anesthetized guinea pig, agonist BANK, Dose Ratio of ED50 in presence/absence of antagonist
T4 construct: from tissue; host or cells: whole anesthetized guinea pig (airways, in vivo)
T4 sequence (Q64077 1-402): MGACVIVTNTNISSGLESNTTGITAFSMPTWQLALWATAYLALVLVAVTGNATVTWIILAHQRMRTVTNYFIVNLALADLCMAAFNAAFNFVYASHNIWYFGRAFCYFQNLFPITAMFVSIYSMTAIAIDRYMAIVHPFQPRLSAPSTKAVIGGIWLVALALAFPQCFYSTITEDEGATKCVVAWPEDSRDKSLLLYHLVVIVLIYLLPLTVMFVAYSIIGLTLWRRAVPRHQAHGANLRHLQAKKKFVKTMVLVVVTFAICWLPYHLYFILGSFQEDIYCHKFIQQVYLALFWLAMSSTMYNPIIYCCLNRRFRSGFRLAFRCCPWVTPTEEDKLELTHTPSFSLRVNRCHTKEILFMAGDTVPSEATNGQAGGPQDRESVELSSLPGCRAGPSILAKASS
Procedure: as §1, §2, §3, §4, §5

Compound | melting point | Kd (NK1 receptor) [nM] | Kd (NK2 receptor) [nM] | NK1 P/A (NK1 receptors; 2 hr) | NK2 P/A (NK2 receptors; 2 hr) | NK1 P/A (NK1 receptors; 1 hr) | NK2 P/A (NK2 receptors; 1 hr)
CN(C[C@@H](CCN1CCC(c2ccc([S+](C)[O-])c(F)c2)CC1)c1ccc(Cl)c(Cl)c1)C(=O)c1cc(C#N)cc2ccccc12 (stereo partly drawn) (as salt: hydrochloride) [Example 60, N-[(S)-2-(3,4-Dichlorophenyl)-4-[4-[3-fluoro-4-methylsulfinylphenyl]-1-piperidinyl]butyl]-N-methyl-3-cyano-1-naphthamide] | 175 to 180 °C |  |  |  |  |  | 
CN(C[C@@H](CCN1CCC(c2ccccc2[S@+](C)[O-])CC1)c1ccc(Cl)c(Cl)c1)C(=O)c1cc(C#N)cc2ccccc12 [Example 1, N-[(S)-2-(3,4-Dichlorophenyl)-4-[4-[(S)-2-methylsulfinylphenyl]-1-piperidinyl]butyl]-N-methyl-3-cyano-1-naphthamide] |  | 1.02 | 5.5 | 32.5 (2 hr) | 21.4 (2 hr) |  | 
COc1ccc(C2CCN(CC[C@H](CN(C)C(=O)c3cc(C#N)cc4ccccc34)c3ccc(Cl)c(Cl)c3)CC2)c([S@+](C)[O-])c1.O=C(O)CC(O)(CC(=O)O)C(=O)O [Example 2, N-[(S)-2-(3,4-Dichlorophenyl)-4-[4-{4-methoxy-(S)-2-methylsulfinylphenyl}-1-piperidinyl]butyl]-N-methyl-3-cyano-1-naphthamide Citrate] |  | 7.94 | 2 | 25.0 (2 hr) | 83.0 (2 hr) |  | 
CN(C[C@@H](CCN1CCC(N2CCCNC2=O)CC1)c1ccc(Cl)c(Cl)c1)C(=O)c1cc(C#N)cc2ccccc12 [Example 36, N-[(S)-2-(3,4-Dichlorophenyl)-4-[4-[tetrahydro-2-oxo-1(2H)-pyrimidinyl]-1-piperidinyl]-butyl]-N-methyl-3-cyano-1-naphthamide Citrate Hydrate (1:1:1.5)] |  | 7.41 | 13.8 |  |  | 45.0 (1 hr) | 20.6 (1 hr)
CCN(C[C@@H](CCN1CCC(c2ccccc2[S@+](C)[O-])CC1)c1ccc(Cl)c(Cl)c1)C(=O)c1cc(C#N)cc2ccccc12 [Example 69, N-[(S)-2-(3,4-Dichlorophenyl)-4-[4-[(S)-2-methylsulfinylphenyl]-1-piperidinyl]butyl]-N-ethyl-3-cyano-1-naphthamide] | 115 to 118 °C (dec.) |  |  |  |  |  | 
